Test results from US20020032918A1, “Alteration of growth and adaptation under hypoxic conditions” (priority 2000, published 2002).

What was measured:
[1] = test system: endogenous ABA and GA1 levels in internodes; details: cited from earlier work
[2] = test system: seedlings of a submergence intolerant cultivar; details: elongation response inhibited by spraying; cited from earlier work
SH2A gene expression = assay: Northern blot analysis of SH2A transcript abundance in isolated deepwater rice stem segments treated with hormone or inhibitor solutions; assay type: cell-based, Oryza sativa L.
Experimental: Seeds of deepwater rice (Oryza sativa L., Pin Gaew 56) were obtained from the International Rice Research Institute (Los Baños, The Philippines). Plants were grown for 12 to 14 weeks as described (Sauter, 1997). All experiments were carried out under continuous light (200 μE/m^−2 s^−1) at 25° C. in a growth chamber. For submergence treatment, whole plants were placed in a 600 liter plastic barrel filled with tap water as described (Lorbiecke and Sauter, 1999). Control plants were kept in the same growth chamber. Analysis of hormone and inhibitor effects was performed using excised stem segments containing the upper highest growth responsive internode. (Raskin and Kende, 1984). Stem segments were incubated in 150 ml beakers with 25 ml aqueous solutions containing the indicated concentrations of gibberellin A3 (GA3) or the hormone precursor ethephon (2-chlorethanephosphoric acid, E) or water alone as a control. Control segments were incubated for 0.5 or 3 h in water. For ethephon treatment stem segments were preincubated for 0.5 h in water before adding ethephon for 2.5 h.
To guarantee high humidity, the beakers were placed in plastic cylinders. Ethylene action was inhibited using 2,5-norbornadiene (bicyclo[2.2.1]hepta-2,5-diene, NBD) at a concentration of 50 μl/l in the gas phase as described (Lorbiecke and Sauter, 1999).
To inhibit protein synthesis, stem sections were incubated with aqueous solutions of cycloheximide for 3 hours at the concentrations indicated.
To determine submergence-dependent gene expression, mRNA abundance of SH2A and SH2B was analysed by RNA gel blot hybridization. RNA was isolated from different zones of the youngest internode and from adventitious roots of the third node from airgrown or partially submerged deepwater rice plants. Thus, tissue sections of the highest internode, 0-5 mm above the second node and containing the intercalary meristem; 5-15 mm above the second node containing the elongation zone; and 15-30 mm above the second node and containing the differentiation zone were used (Lorbiecke and Sauter, 1997). Adventitious roots of the third node were isolated as described (Lorbiecke and Sauter, 1999). The tissues were immediately frozen in liquid nitrogen and stored at −70° C. until RNA extraction. Total RNA was isolated with the TRIzol reagent (Gibco BRL) and precipitated with 4 M LiCl as described (Puissant and Houdebine, 1990, Lorbiecke and Sauter, 1999). RNA separation and Northern blot hybridization were carried out as described previously (Lorbiecke and Sauter, 1998). For RNA blot analysis, 20 μg of total RNA was separated by electrophoresis on a 1% (w/v) agarose gel containing 6% formaldehyde. The RNA was blotted to a nylon membrane (Hybond N+; Amersham, Braunschweig, Germany) according to Lorbiecke and Sauter (1998). For hybridization, gene-specific cDNA-fragments covering the 3′-regions of SH2A (nt 496-867) and SH2B (nt 513-980) were random prime labelled with 32P using the ‘Rediprime Labelling Kit’ (Amersham, Braunschweig, Germany). Hybridization was carried out overnight at 68° C. in 1% SDS, 1 M NaCl, 10% (w/v) dextran sulfate and heat-denatured salmon sperm DNA. The blots were washed once in 1× SSC (0.15 M NaCl, 15 mM Na-citrate, pH 7.0) at 68° C. and once in 1× SSC, 1% (w:v) SDS at 68° C. for 10 min each (Sauter, 1997).
To analyse the hormone-dependent expression of the SH2A gene, isolated stem segments containing the youngest internode were treated with different hormone or inhibitor solutions for 2.5 hours. Total RNAs were isolated from the regions containing the intercalary meristem and the elongation zone and were analysed for SH2A transcript abundance (FIG. 8a).

C=C [ethylene]
increase of endogenous GA1 levels ([1]; at the same time (within three hours)): four-fold
reduction of endogenous ABA levels in internodes ([1]; within three hours of application of ethylene): 75%

CC(C)(C)[C@@H](O)[C@@H](Cc1ccc(Cl)cc1)n1cncn1 (racemic) [paclobutrazol]
survival of seedlings [2]: greatly enhanced

O=P(O)(O)CCCl [ethephon, 2-chloroethanephosphoric acid]
SH2A mRNA levels between 2 and 6 hours (SH2A gene expression; 150 μM ethephon, meristem and elongation zone): declined to control levels
time of maximal SH2A mRNA abundance (SH2A gene expression; 150 μM ethephon, meristem and elongation zone, RNA at 1 hour intervals): 2 h
lowest ethephon concentration inducing SH2A transcript accumulation (SH2A gene expression; 2.5 hours, 0.015-150 μM tested, intercalary meristem): 1.5 µM
SH2A transcript levels (SH2A gene expression; stem segments treated with 150 μM ethephon, 2.5 h, intercalary meristem and elongation zone): strong increase

C=C1C[C@]23C[C@@]1(O)CC[C@H]2[C@@]12C=C[C@H](O)[C@@](C)(C(=O)O1)[C@H]2[C@@H]3C(=O)O [GA3, gibberellin A3]
SH2A transcript levels (SH2A gene expression; incubation with 50 μM GA3, after 2.5 h, compared with controls): did not result in increased SH2A transcript levels

C[C@@H]1C[C@@H]([C@H](O)CC2CC(=O)NC(=O)C2)C(=O)[C@@H](C)C1 [cycloheximide]
induction of SH2A gene expression in the presence of the protein synthesis inhibitor (SH2A gene expression; 150 μM ethephon with cycloheximide, intercalary meristem): occurred
cycloheximide concentration required for SH2A gene induction (SH2A gene expression; dose response, 3 h, intercalary meristem): ≥ 20 µg/mL
SH2A transcripts after treatment with CHX alone (SH2A gene expression; stem segments, 3 h, intercalary meristem): accumulation of SH2A transcripts

C1=CC2C=CC1C2 [norbornadiene, bicyclo[2.2.1]hepta-2,5-diene]
SH2A transcript levels (SH2A gene expression; ethephon in combination with norbornadiene at 50 μl/l in the gas phase): reduced to control levels
